Experimental data as given in patent US20230337668A1, “COMPOSITION” (GIVAUDAN SA, priority 2020, published 2023).

System: Bacillus subtillis
Assay: microorganisms counting in inoculated fish matrix (fish model)
Details: D14, 25° C., positive control at 0.3%, average of two determinations
Protocol: Fish matrix was made of fish and water (50/50), without preservatives. The matrix was homogenized in a blade mixer grinder and then sterilized at 121° C. for 20 minutes, prior the tests.
Blends were added at 0.5 % into the matrix. Matrices without preservatives (0.5 % of NaCl 0.9%) and matrices with conventional chemical preservatives (0.3% of sodium lactate or potassium nitrite, separately) were used as negative and positive control, respectively.
Each matrix type was portioned into sterile flasks and inoculated with 3 Log CFU/g of different microorganisms, separately. Each flask corresponds to one sample at a given date of analysis.
The inoculated matrices were incubated at 25° C.
The counting of the microorganisms was determined in specific agar medium.

Row | SMILES | Bacillus subtillis spores (Bacillus subtillis totaux - Bacillus subtillis vegetative cells) [Log CFU/g] | Bacillus subtillis totaux (vegetative cells + spores) [Log CFU/g]
1 | CC(O)C(=O)[O-].[Na+] (stereo not shown) [Sodium lactate] | 2.35 | 2.90
2 | O=N[O-].[K+] [Potassium nitrite] | 2.39 | 2.60
